Measurements: US20040076974A1, “Liver necrosis predictive genes” (priority 2002, published 2004)
“And” between values parts separate entries of the source, which are not always exact repeats. Equal entries are not always repeated.

Tested on: toxicologically relevant rat genes (rat CT array)
Conditions: rat, in vivo

O=P1(N(CCCl)CCCl)NCCCO1 (stereo not shown) [cyclophosphamide]
Phase-1 RCT-36 expression: 0.8405 and 0.8638 and 0.7841
Phase-1 RCT-38 expression: 0.6634
Phase-1 RCT-39 expression: 1.102 and 0.8162
Phase-1 RCT-40 expression: 0.9476 and 0.7827 and 0.6627 and 0.9191
Phase-1 RCT-43 expression: 1.413
Phase-1 RCT-48 expression: 0.7872
Phase-1 RCT-49 expression: 0.9994
Phase-1 RCT-50 expression: 1.001 and 0.9172
Phase-1 RCT-57 expression: 1
Phase-1 RCT-58 expression: 0.9564
Phase-1 RCT-61 expression: 0.956 and 0.9001
Phase-1 RCT-65 expression: 1.662
Phase-1 RCT-68 expression: 1.562
Phase-1 RCT-78 expression: 0.8268
Phase-1 RCT-81 expression: 0.9793
Phase-1 RCT-88 expression: 0.7545 and 0.7728 and 0.8998 and 0.9204
Phase-1 RCT-89 expression: 0.8326
Phase-1 RCT-92 expression: 0.7803 and 0.7782
Phase-1 RCT-117 expression: 0.9098
Phase-1 RCT-121 expression: 0.9382
Phase-1 RCT-123 expression: 0.8497
Phase-1 RCT-128 expression: 0.7223
Phase-1 RCT-137 expression: 0.7713
Phase-1 RCT-138 expression: 0.9171
Phase-1 RCT-144 expression: 0.8012 and 0.9797 and 0.8356
Phase-1 RCT-146 expression: 0.8995
Phase-1 RCT-149 expression: 1.199
Phase-1 RCT-152 expression: 0.9267 and 0.8689
Phase-1 RCT-154 expression: 0.9702
Phase-1 RCT-156 expression: 1.626
Phase-1 RCT-164 expression: 1.443 and 0.9271
Phase-1 RCT-179 expression: 0.9473 and 0.8452 and 0.9271
Phase-1 RCT-180 expression: 0.9312 and 0.9629
Phase-1 RCT-182 expression: 0.7286 and 0.6249 and 0.7487 and 1.104
Phase-1 RCT-189 expression: 1.097 and 0.7075 and 0.8923
Phase-1 RCT-192 expression: 1.102
Phase-1 RCT-207 expression: 0.9999 and 1.403 and 0.9634 and 0.8151
Phase-1 RCT-211 expression: 1.001
Phase-1 RCT-213 expression: 0.9194 and 0.9272
Phase-1 RCT-227 expression: 0.8544 and 0.7558
Phase-1 RCT-230 expression: 0.8887
Phase-1 RCT-241 expression: 0.9823
Phase-1 RCT-258 expression: 1.294 and 1.004 and 1.001
Phase-1 RCT-260 expression: 0.9269
Phase-1 RCT-264 expression: 0.7874
Phase-1 RCT-270 expression: 0.9664 and 0.6832
Phase-1 RCT-271 expression: 0.642 and 0.7477
Phase-1 RCT-288 expression: 0.8319 and 0.9535
Phase-1 RCT-290 expression: 0.6874 and 0.7078 and 0.8375
Phase-1 RCT-291 expression: 1 and 0.8077 and 0.9279
Phase-1 RCT-292 expression: 0.8838
Poly(ADP-ribose) polymerase expression: 0.9399 and 0.8855 and 1.07
Presenilin-1 expression: 0.6993 and 0.8827 and 0.7827
Proliferating cell nuclear antigen gene expression: 0.8773 and 0.9599 and 1
Protein tyrosine phosphatase, receptor type, D expression: 1.351 and 1.117
Pyruvate kinase, muscle expression: 0.9707 and 1.019 and 0.8026
Retinol dehydrogenase type III expression: 1.384 and 0.6954 and 0.7914
Ribosomal protein S8 expression: 0.9951 and 0.8646 and 0.9055
Ribosomal protein S17 expression: 0.973 and 0.9247 and 0.8883 and 1.41 and 1.034 and 0.9413
Stathmin expression: 1.012 and 1.005 and 0.8767
Thioredoxin-1 (Trx1) expression: 0.9618 and 0.9127 and 0.8599
Thymidylate synthase expression: 1.077 and 1.121 and 1.142
Thymosin beta-10 expression: 1.026 and 0.8658 and 0.6552
Tissue plasminogen activator expression: 0.8917 and 0.8347 and 0.9056
Transitional endoplasmic reticulum ATPase expression: 0.9095 and 0.8634 and 0.9474
Transthyretin expression: 0.9173 and 0.9384 and 0.8358 and 0.667 and 1.075
Ubiquitin conjugating enzyme (RAD 6 homologue) expression: 0.9811 and 1.057 and 0.8291 and 1.341 and 1.041 and 1.145 and 0.8334 and 1.02
Uncoupling protein 2 expression: 0.8638 and 0.7241
Zinc finger protein expression: 0.991 and 1.034 and 1.076 and 1.004 and 1.101 and 0.9835 and 1.081 and 1.11
c-myc expression: 0.9533 (2×) and 0.912 and 1.636 and 0.8965
p55CDC expression: 0.9412 and 1.059 and 0.9495
{Phase-1 RCT 98} expression: 0.8899 and 0.9469
{Ribosomal protein 16} expression: 1.097 and 0.9357 and 0.8372
